Laboratory results as given in US6380255B1, “Treatment for dermal skin atrophy using thyroid hormone compounds or thyroid hormone-like compounds” (Karo Bio AB, priority 1995, dated 2002).
Values joined by “and” are separate entries in the source; they are usually repeats but may differ in a detail not shown here. Identical values can stand only once.

System: Balb/c mice
Test: Prevention of glucocorticoid (betamethasone)-induced dermal atrophy in normal mice, dermis thickness in Van Gieson stained biopsies
Assay type: in vivo, mouse
Conditions: for Thickness of dermis (mm) in 5 low power fields (×10) / Thickness of dermis, mean (mm): one week
Description: Normal Balb/c mice were used for the experiments. […] Therefore each averaged measurement represents 25 determinations.
In FIGS. 1-3, the arrows show the dermal layer which is predominantly collagen fibers.

[1] = Bet. 0.2 mM + 0.0008 mM test compound, topical daily
[2] = Bet. 0.2 mM + 0.008 mM test compound, topical daily
[3] = Bet. 0.2 mM + 0.08 mM test compound, topical daily
[4] = Bet. 0.2 mM + 0.8 mM test compound, topical daily

| Appearance of dermis in biopsy micrograph (FIG. 1) (betamethasone alone for one week) | SMILES | Thickness of dermis (mm) in 5 low power fields (×10) [1] | Thickness of dermis, mean (mm) [1] | Thickness of dermis (mm) in 5 low power fields (×10) [2] | Thickness of dermis, mean (mm) [2] | Thickness of dermis (mm) in 5 low power fields (×10) [3] | Thickness of dermis, mean (mm) [3] | Thickness of dermis (mm) in 5 low power fields (×10) [4] | Thickness of dermis, mean (mm) [4] | Thickness of dermis (mm) in 5 low power fields (×10) (0.8 mM test compound alone (no betamethasone)) | Appearance of dermis in biopsy micrograph (FIG. 3) (Triac alone for one week) | Concentration at which the effect on betamethasone-induced atrophy saturates (range 0.0008 to 8 mM) | Thickness of dermis, mean (mm) (Bet. 0.2 mM + placebo cr. (hydrophilic cream)) | Thickness of dermis (mm) in 5 low power fields (×10) (Bet. 0.2 mM + placebo cr. (hydrophilic cream), listed as Bet.) | Thickness of dermis, mean (mm) (Betamethasone 0.2 mM alone, 100 μl topical daily) |
| --- | --- | --- | --- | --- | --- | --- | --- | --- | --- | --- | --- | --- | --- | --- | --- |
|  | O=C(O)CCc1cc(I)c(Oc2ccc(O)c(I)c2)c(I)c1 [TriProp] | 0.41 mm and 0.40 mm and 0.46 mm | 0.42 mm | 0.45 mm and 0.50 mm and 0.40 mm and 0.42 mm and 0.48 mm | 0.45 mm | 0.50 mm and 0.48 mm and 0.47 mm and 0.44 mm | 0.48 mm | 0.50 mm and 0.45 mm and 0.47 mm and 0.48 mm and 0.52 mm | 0.48 mm |  |  |  |  |  |  |
|  | OCc1cc(I)c(Oc2ccc(O)c(I)c2)c(I)c1 [KB-026, 4-(4-hydroxymethyl-2,6-diiodophenoxy)-2-iodo-phenol] | 0.40 mm and 0.41 mm and 0.42 mm | 0.41 mm | 0.45 mm and 0.42 mm and 0.46 mm and 0.44 mm | 0.44 mm | 0.44 mm and 0.50 mm and 0.49 mm and 0.46 mm | 0.48 mm | 0.50 mm and 0.52 mm and 0.48 mm and 0.51 mm | 0.50 mm |  |  |  |  |  |  |
|  | CC(C)c1cc(Oc2c(Br)cc(Cc3nnn[nH]3)cc2Br)ccc1O [KB-067, 4-[2,6-dibromo-4-(1H-tetrazol-5-ylmethyl)-phenoxy]-2-isopropyl-phenol] | 0.42 mm and 0.39 mm and 0.40 mm | 0.40 mm | 0.40 mm and 0.39 mm and 0.41 mm | 0.40 mm | 0.40 mm and 0.41 mm and 0.39 mm | 0.40 mm | 0.45 mm and 0.46 mm and 0.47 mm and 0.48 mm | 0.46 mm |  |  |  |  |  |  |
|  | O=C(O)Cc1cc(I)c(Oc2ccc(O)c(I)c2)c(I)c1 [TriAc, [4-(4-hydroxy-3-iodophenoxy)-3,5-diiodophenyl]acetic acid] | 0.40 mm and 0.36 mm and 0.38 mm | 0.38 mm | 0.40 mm and 0.44 mm | 0.45 mm |  |  |  |  | 0.72 mm and 0.82 mm and 0.84 mm and 0.76 mm | very dense and thicker than that shown in FIG. 2 | approximately 0.8 mM |  |  |  |
| very thinned | C[C@H]1C[C@H]2[C@@H]3CCC4=CC(=O)C=C[C@]4(C)[C@@]3(F)[C@@H](O)C[C@]2(C)[C@@]1(O)C(=O)CO [Betamethasone, betamethasone, reference compound] |  |  |  |  |  |  |  |  |  |  |  | 0.40 mm | 0.40 mm and 0.42 mm and 0.38 mm and 0.39 mm | 0.37 mm and 0.42 mm |
